This note sets out measurements from patent US8507440B2, “Protein kinase C peptides for use in withdrawal” (The Board of Trustees of the Leland Stanford Junior …, priority 2002, dated 2013).

For one assay, the system named is postnatal day 7 rats. Briefly: naloxone-precipitated morphine withdrawal, mechanical threshold and thermal paw withdrawal latency in vivo. The conditions noted are these: 10 μM in 5 μl intrathecally prior to morphine 1 mg/kg s.c.; naloxone 0.25 mg/kg 30 min after morphine. Set-up: species or system rat. The procedure: In vivo studies on opiate withdrawal allodynia and hyperalgesia were conducted using postnatal day 7 rats. As described in Example 2, postnatal day 7 rats were given morphine subcutaneously followed 30 minutes later by naloxone or saline. Mechanical threshold using von Frey filaments to produce the flexion withdrawal response of the hind paw and thermal stimulation to measure the paw withdrawal latency were measured as described in Example 2.
FIG. 5A illustrates a treatment protocol where rat pups were given a PKC antagonist intrathecally (e.g., directly into the cerebrospinal fluid surrounding the spinal cord) prior to subcutaneous morphine delivery. Thirty minutes after morphine delivery, naloxone was administered, followed by mechanical allodynia and thermal hyperalgesia testing (as described in Example 2).
Postnatal day 7 Sprague-Dawley rats (Charles River Laboratories) of both sexes were used. For all behavioural experiments rats were maintained at nesting temperature with overhead heatlamps.
To measure mechanical thresholds, rats were placed on an elevated wire mesh (2 mm openings). Von Frey hairs (Stoelting Co., WoodDale, Ill., USA) were used to elicit a cutaneous flexion withdrawal response as described by Fitzgerald et al. (Fitzgerald M., et al., PAIN […] INFANTS, CHILDREN AND ADOLESCENTS; Schetchter and Yaster, Eds., pp 11-32, Williams and Williams (Baltimore, Md.) (1993). Von Frey hairs of increasing intensity were applied three times to the plantar surface of the left hind paw until a paw withdrawal was elicited. The lowest intensity Von Frey hair required to produce a withdrawal reflex was recorded as the response threshold to a low-intensity mechanical stimulus.
Thermal paw withdrawal latencies were measured using the Ugo Basile Plantar Testing apparatus (Stoelting Co., WoodDale, Ill., USA). Briefly, postnatal day 7 rats were placed under inverted Plexiglas enclosures and the plantar surface of the left hindpaw was heated from below with the IR intensity of the lamp set at 30. Two baseline thermal response latency measures were collected prior to morphine administration with a cut-off of 20 seconds enlisted to prevent tissue damage.
Postnatal day 7 rats were administered 1 mg/kg morphine sulfate (Sigma) subcutaneously in 50 μl saline. Mechanical thresholds were measured 15 minutes later to establish analgesia. Rats were returned to their dam. At 30 or 120 minutes post morphine, rats were administered 0.25 mg/kg naloxone (Sigma) subcutaneously in 50 μl saline. Mechanical thresholds and thermal paw withdrawal latencies were measured in 10 minute intervals. Tat conjugated peptide inhibitors specific to the ε (εV1-2; SEQ ID NO:1, 10 μM) and γ ([…]; SEQ ID NO:2, 10 μM) isoforms of PKC, Tat carrier (10 μM), or saline were administered in 5 μl volumes intrathecally via direct lumbar puncture using a sterile 29 gauge 3/10 cc insulin syringe in rats lightly anesthetized with halothane. To allow for complete recovery from anesthetic, animals were administered peptides or control solutions 30 minutes prior to naloxone.
An unpaired T-test was used to determine the significance of post-naloxone measures from baseline measures. Significance between treatment groups for PKC inhibitor studies both in vivo and in vitro was determined by one way analysis of variance (ANOVA) followed by a post-hoc Bonferroni analysis. P-values<0.05 were considered significant. All statistical analysis was done with GraphPad Prism version 3.02.

A further assay has as its system isolated spinal cords. Nature of the assay: slow ventral root potential (sVRP) of isolated spinal cord, naloxone-precipitated morphine withdrawal hyperresponsiveness. Format: cell-based, rat. The source says:
The slow ventral root potential (sVRP) is an electrophysiolgical measurement of nociceptive-related response in the spinal cord lasting approximately 40 seconds (Yanagisawa et al., Eur. J. Pharmacol., 106:231-239 (1984); Akagi H. et al., British J. Pharmacol., 84:663-673 (1985); Otsuka M. et al., J. Physiol., 395:255-270 (1988)). It is evoked by stimulation of a lumbar dorsal root at an intensity sufficient to activate small diameter afferents that transmit nociceptive (painful) stimuli from the periphery to the spinal cord (Lozier A. P. et al., J. Neurophysiol., 74:1001-1009 (1995)). […] Thus, the sVRP is related to pain, and its exaggeration following naloxone is a manifestation of withdrawal which translates to an increase in pain sensation in vivo.
Spinal cords from 4-7 day old rats (Charles River Laboratories) were removed and arranged for electrophysiological recording of the slow ventral root potentials (sVRP) (Woodley S. J., et al., Brain Res., 559:17-21 (1991). Briefly, pups were decapitated under halothane anesthesia and the spinal cord removed to an oxygenated artificial cerebrospinal fluid solution. A suction stimulating electrode was placed on a lumbar dorsal root and a suction recording electrode on the corresponding ipsilateral ventral root. Square wave stimuli 0.2 ms in duration were administered at a constant frequency of 1/50 seconds throughout the experiment. Test agents were applied and the responses were recorded, digitized, and area under the curve measured.
After a baseline reading of the sVRP, morphine (200 nM) was applied to the isolated spinal cords. The sVRP was again recorded to characterize the response to morphine. Naloxone (200 nM) was then applied and the sVRPs recorded.
FIGS. 2A-2D show the results after application of non-specific PKC antagonist, GF109203X (1.2 μM), and of an inhibitor specific to Ca++-dependent PKC isoforms, Go6976 (1 μM).
FIGS. 3A-3B show the results after application of the εPCK antagonist (εV1-2; SEQ ID NO:1, 2 nM), conjugated to a peptide carrier (Tat; SEQ ID NO:3) and the Tat peptide alone (2 nM; SEQ ID NO:3). FIGS. 3C-3D show the results after application of γPKC (γV5-3; SEQ ID NO:2, 4 nM) conjugated to a peptide carrier (Tat; SEQ ID NO:3) and of the Tat peptide alone (4 nm; SEQ ID NO:3).

Ends that are not written are not given here.

For the substance “RLVLAS (also: Tat peptide conjugate; listed as Homo sapiens) [γV5-3]”, the “block of naloxone-precipitated morphine withdrawal allodynia and hyperalgesia” value with postnatal day 7 rats is reported as “had a smaller blocking effect”. In addition, the “effect on sVRP of inhibitor alone” value in the assay with isolated spinal cords (absence of morphine) is “did not significantly altered the sVRP”. Also, the “block of naloxone-precipitated withdrawal hyperresponsiveness of sVRP” value in the assay on isolated spinal cords (morphine 200 nM then naloxone 200 nM, GF109203X 1.2 μM, Go6976 1 μM, εV1-2 2 nM, γV5-3 4 nM, Tat 2-4 nM) is “reduced withdrawal hyperresponsiveness, but not to a significantly greater amount than the Tat carrier vehicle alone”.
